Data reported in ChEMBL document CHEMBL2034816, “Synthesis and molecular modelling studies of novel carbapeptide analogs for inhibition of HIV-1 protease” (Eur J Med Chem, 2012).

Legend:
Protease [1] = biological target: T1, Protease (Human immunodeficiency virus 1, UniProt Q9YQ12); assay: Inhibition of HIV1 protease
Protease [2] = biological target: T1, Protease; assay: Inhibition of South African HIV1 subtype C protease expressed in Escherichia coli BL21S4 (DE3)pLysS cells using Lys-Ala-Arg-Val-Nle-p-nitro-Phe-Glu-Ala-Nle-NH2 as substrate by spectrophotometry
[3] = Ratio of compound IC50 to lopinavir IC50 for human MT4 cells after 5 days by XTT assay; format: ADME, cell-based; details: read-out: Ratio IC50

T1 sequence (Q9YQ12 whole entry): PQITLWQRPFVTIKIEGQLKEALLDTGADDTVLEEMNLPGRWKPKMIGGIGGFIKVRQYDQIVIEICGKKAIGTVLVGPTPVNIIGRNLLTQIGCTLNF

| SMILES | IC50 (Protease [1]) | IC50 (Protease [2]) | Ki (Protease [1]) | selectivity ratio at 120 h [3] |
| --- | --- | --- | --- | --- |
| CC(C)(C)OC(=O)N[C@@H](Cc1ccccc1)[C@@H](O)CC(C/C=C/c1ccccc1)C(=O)N[C@H](C(=O)NC[C@H]1OC(O)[C@H](O)[C@H]1O)C1CCCCC1 (stereo partly specified) | 0.00017 µM | – | – | – |
| CC(C)[C@H](NC(=O)C[C@H](NCc1ccccc1)C1O[C@@H]2OC(C)(C)O[C@@H]2[C@H]1OCc1ccccc1)C(=O)N[C@@H](C)C(=O)O (stereo partly specified) | – | 1.29 µM | – | > 5000 |
| CC(C)[C@H](NC(=O)C[C@@H](N)C1O[C@@H]2OC(C)(C)O[C@@H]2[C@H]1O)C(=O)N[C@@H](C)C(=O)O (stereo partly specified) | – | 0.95 µM | – | > 5000 |
| CC(C)[C@H](NC(=O)[C@H](C)NC(=O)C[C@H](NCc1ccccc1)C1O[C@@H]2OC(C)(C)O[C@@H]2[C@H]1OCc1ccccc1)C(=O)O (stereo partly specified) | – | 0.76 µM | – | > 5000 |
| CC(C)[C@H](NC(=O)[C@H](C)NC(=O)C[C@@H](N)C1O[C@@H]2OC(C)(C)O[C@@H]2[C@H]1O)C(=O)O (stereo partly specified) | – | > 10 µM | – | > 5000 |
| CC(C)[C@H](NC(=O)[C@H](C)NC(=O)C[C@H](NCc1ccccc1)C1O[C@@H]2OC(C)(C)O[C@@H]2[C@H]1O)C(=O)O (stereo partly specified) | – | 0.71 µM | – | > 5000 |
| O=C(N[C@@H]1Cc2ccccc2[C@@H]1O)C(OCc1ccccc1)[C@H](O)[C@@H](O)C(OCc1ccccc1)C(=O)N[C@@H]1Cc2ccccc2[C@@H]1O (stereo partly specified) | – | – | 0.00122 µM | – |

Second part, led by results:

| IC50 (Protease [1]) | IC50 (Protease [2]) | Ki (Protease [1]) | SMILES | selectivity ratio at 120 h [3] |
| --- | --- | --- | --- | --- |
| – | 1.09 µM | – | CC(C)[C@H](NC(=O)C[C@@H](NCc1ccccc1)C1O[C@@H]2OC(C)(C)O[C@@H]2[C@H]1OCc1ccccc1)C(=O)N[C@@H](C)C(=O)O (stereo partly specified) | > 5000 |
| – | 1.01 µM | – | CC(C)[C@H](NC(=O)C[C@H](N)C1O[C@@H]2OC(C)(C)O[C@@H]2[C@H]1O)C(=O)N[C@@H](C)C(=O)O (stereo partly specified) | > 5000 |
| – | 1.02 µM | – | CC(C)[C@H](NC(=O)[C@H](C)NC(=O)C[C@@H](NCc1ccccc1)C1O[C@@H]2OC(C)(C)O[C@@H]2[C@H]1OCc1ccccc1)C(=O)O (stereo partly specified) | > 5000 |
| – | > 10 µM | – | CC(C)[C@H](NC(=O)[C@H](C)NC(=O)C[C@H](N)C1O[C@@H]2OC(C)(C)O[C@@H]2[C@H]1O)C(=O)O (stereo partly specified) | > 5000 |
| > 2000 µM | – | – | COC(=O)[C@H](CC(C)C)NC(=O)[C@H](Cc1ccccc1)NC(=O)[C@@H]1O[C@@H](C(=O)N[C@@H](Cc2ccccc2)C(C)N[C@@H](CC(C)C)C(=O)OC)[C@@H](O)[C@@H]1O (stereo partly specified) | – |
